Laboratory results reported in patent publication US20260166162A1, “CARBON CHAIN SUBSTANCE FOR REGULATING TRANSMEMBRANE TRANSPORT AND FLUIDITY OF CELL MEMBRANES, AND PREPARATION AND USE THEREOF” (priority 2022, published 2026).
Where “and” joins values, the source holds several entries; their conditions need not be identical. Equal entries are not always repeated.

What was measured:
[1] = tested on: IL-6; experiment: Skin photoaging (UVB) in BALB/c nude mice, serum IL-6 (Example II-54, Table II-34); type: in vivo, mouse; conditions: mouse, in vivo
[2] = tested on: TNF-α; experiment: Skin photoaging (UVB) in BALB/c nude mice, serum TNF-α (Example II-54, Table II-32); type: in vivo, mouse; conditions: UVB-irradiated BALB/c nude mice, 40 days
[3] = tested on: Hela cells; experiment: Cell membrane fluidity (Laurdan fluorescence recovery) in Hela cells; type: cell-based
[4] = tested on: IL-6; experiment: LPS inflammatory aging in C57BL/6 mice, serum IL-6 (Example II-55, Table II-36); type: in vivo, mouse; conditions: mouse, in vivo
[5] = tested on: IL-1β; experiment: Skin photoaging (UVB) in BALB/c nude mice, serum IL-1β (Example II-54, Table II-33); type: in vivo, mouse; conditions: mouse, in vivo
[6] = tested on: TNF-α; experiment: LPS inflammatory aging in C57BL/6 mice, serum TNF-α (Example II-55, Table II-37); type: in vivo, mouse; conditions: 1 mM, 200 μl/time once a day for 30 days, LPS C57BL/6 mice
[7] = tested on: Hela cells; experiment: Phagocytosis of adriamycin-loaded ferroferric oxide nanoparticles by Hela cells; type: cell-based; conditions: 5 nM for 1 h, then nanoparticles 4 h
Procedure: Hela cells (cell bank, Chinese Academy of Sciences) were seeded in a 6-well plate at a density of 1.0*10^5 and cultured for 24 h. The cells were treated with 5 nM Ser-EPA for 1 h and washed to remove Ser-EPA. Adriamycin-loaded ferroferric oxide nanoparticles were added followed by incubation for 4 h. Then, the cells were washed with PBS, stained with DAPI, and observed with confocal microscope.

[8] = tested on: IL-1β; experiment: LPS inflammatory aging in C57BL/6 mice, serum IL-1β (Example II-55, Table II-35); type: in vivo, mouse; conditions: 1 mM, 200 μl/time, once a day, 30 days

CCC=CCC=CCC=CCC=CCC=CCCCC(=O)NC(CO)C(=O)O (stereo not drawn) [Ser-EPA, Serine-EPA]
IL-6 [1]: 41 pg/mL and 38 pg/mL and 39 pg/mL | TNF-α ([2]; 30 μM smeared): 54 pg/mL | TNF-α ([2]; 50 μM smeared): 49 pg/mL | TNF-α ([2]; 100 μM smeared): 44 pg/mL | Fluorescence recovery rate % ([3]; 2 nM, 20 s): 63.44% | Fluorescence recovery rate % ([3]; 2 nM, 40 s): 65.36% | Fluorescence recovery rate % ([3]; 2 nM, 60 s): 65.21% | Fluorescence recovery rate % ([3]; 2 nM, 80 s): 66.35% | Fluorescence recovery rate % ([3]; 5 nM, 20 s): 64.73% | Fluorescence recovery rate % ([3]; 5 nM, 40 s): 64.59% | Fluorescence recovery rate % ([3]; 5 nM, 60 s): 65.66% | Fluorescence recovery rate % ([3]; 5 nM, 80 s): 67.97% | Fluorescence recovery rate % ([3]; 10 nM, 20 s): 64.66% | Fluorescence recovery rate % ([3]; 10 nM, 40 s): 65.11% | Fluorescence recovery rate % ([3]; 10 nM, 60 s): 65.24% | Fluorescence recovery rate % ([3]; 10 nM, 80 s): 66.83% | Fluorescence recovery rate % ([3]; 50 nM, 20 s): 62.84% | Fluorescence recovery rate % ([3]; 50 nM, 40 s): 62.94% | Fluorescence recovery rate % ([3]; 50 nM, 60 s): 63.04% | Fluorescence recovery rate % ([3]; 50 nM, 80 s): 64.54% | Fluorescence recovery rate % ([3]; 50 μM, 20 s): 64.33% | Fluorescence recovery rate % ([3]; 50 μM, 40 s): 72.49% | Fluorescence recovery rate % ([3]; 50 μM, 60 s): 73.77% | Fluorescence recovery rate % ([3]; 50 μM, 80 s): 81.40% | Fluorescence recovery rate % ([3]; 100 μM, 20 s): 65.72% | Fluorescence recovery rate % ([3]; 100 μM, 40 s): 72.99% | Fluorescence recovery rate % ([3]; 100 μM, 60 s): 74.34% | Fluorescence recovery rate % ([3]; 100 μM, 80 s): 80.39% | IL-6 [4]: 47 pg/mL | IL-1β [5]: 57 pg/mL and 61 pg/mL and 54 pg/mL | TNF-α [6]: 48 pg/mL | phagocytosis of nanoparticles by treated cells [7]: significantly inhibited | IL-1β [8]: 48 pg/mL
